Common to all, as to assay: relative viability (nuclei count vs DMSO), 5 days (fraction); higher = more cells survive
Compound in the test “AZD5582 + Pictilisib”: C[C@@H](C(=O)N[C@@H](C1CCCCC1)C(=O)N2CCC[C@H]2C(=O)N[C@@H]3[C@@H](CC4=CC=CC=C34)OCC#CC#CCO[C@@H]5CC6=CC=CC=C6[C@@H]5NC(=O)[C@@H]7CCCN7C(=O)[C@H](C8CCCCC8)NC(=O)[C@H](C)NC)NC [AZD5582] + CS(=O)(=O)N1CCN(Cc2cc3nc(-c4cccc5[nH]ncc45)nc(N4CCOCC4)c3s2)CC1 [Pictilisib] (partner 1 µM)
A digest of the protocol:
(§1)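 Lung cancer cell lines in 1536-well plates got either a single drug or a fixed anchor-drug dose together with five library-drug doses (not always all listed) in √10 steps, by pin tool, on the day after seeding. Nuclei were counted after 5 days, and relative viability is the treated-to-vehicle ratio of nuclei counts. Values are medians of duplicate plates.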

Compound in the test “AZD5582 + Crizotinib”: C[C@@H](C(=O)N[C@@H](C1CCCCC1)C(=O)N2CCC[C@H]2C(=O)N[C@@H]3[C@@H](CC4=CC=CC=C34)OCC#CC#CCO[C@@H]5CC6=CC=CC=C6[C@@H]5NC(=O)[C@@H]7CCCN7C(=O)[C@H](C8CCCCC8)NC(=O)[C@H](C)NC)NC [AZD5582] + C[C@@H](Oc1cc(-c2cnn(C3CCNCC3)c2)cnc1N)c1c(Cl)ccc(F)c1Cl [Crizotinib] (partner 1 µM)
The essentials: as §1

Compound in the test “AZD5582 + OSI-027”: C[C@@H](C(=O)N[C@@H](C1CCCCC1)C(=O)N2CCC[C@H]2C(=O)N[C@@H]3[C@@H](CC4=CC=CC=C34)OCC#CC#CCO[C@@H]5CC6=CC=CC=C6[C@@H]5NC(=O)[C@@H]7CCCN7C(=O)[C@H](C8CCCCC8)NC(=O)[C@H](C)NC)NC [AZD5582] + COc1cccc2cc(-c3nc([C@H]4CC[C@H](C(=O)O)CC4)n4ncnc(N)c34)[nH]c12 [OSI-027] (partner 0.5 µM)
A digest of the protocol: as §1

Compound in the test “AZD5582 + Linsitinib”: C[C@@H](C(=O)N[C@@H](C1CCCCC1)C(=O)N2CCC[C@H]2C(=O)N[C@@H]3[C@@H](CC4=CC=CC=C34)OCC#CC#CCO[C@@H]5CC6=CC=CC=C6[C@@H]5NC(=O)[C@@H]7CCCN7C(=O)[C@H](C8CCCCC8)NC(=O)[C@H](C)NC)NC [AZD5582] + C[C@]1(O)C[C@@H](c2nc(-c3ccc4ccc(-c5ccccc5)nc4c3)c3c(N)nccn32)C1 [Linsitinib] (partner 1 µM)
A digest of the protocol: as §1

Compound in the test “AZD5582 + Tozasertib”: C[C@@H](C(=O)N[C@@H](C1CCCCC1)C(=O)N2CCC[C@H]2C(=O)N[C@@H]3[C@@H](CC4=CC=CC=C34)OCC#CC#CCO[C@@H]5CC6=CC=CC=C6[C@@H]5NC(=O)[C@@H]7CCCN7C(=O)[C@H](C8CCCCC8)NC(=O)[C@H](C)NC)NC [AZD5582] + Cc1cc(Nc2cc(N3CCN(C)CC3)nc(Sc3ccc(NC(=O)C4CC4)cc3)n2)n[nH]1 [Tozasertib] (partner 0.1 µM)
A digest of the protocol: as §1

On to HCC-78, for which the relative viability in the test with AZD5582 + Pictilisib (first compound 0.001581 µM) was found to be 0.198; with AZD5582 + Pictilisib (first compound 0.005 µM), 0.24; with AZD5582 + Pictilisib (first compound 0.01581 µM), 0.147; with AZD5582 + Pictilisib (first compound 0.05 µM), 0.169; in the test with AZD5582 + Crizotinib (first compound 0.001581 µM) it was 0.294; in the test with AZD5582 + Crizotinib (first compound 0.005 µM), 0.353. Also, the relative viability in the test with AZD5582 + Crizotinib (first compound 0.01581 µM) amounted to 0.312; with AZD5582 + Crizotinib (first compound 0.05 µM) it was 0.426; with AZD5582 + OSI-027 (first compound 0.001581 µM) it was 0.382; with AZD5582 + OSI-027 (first compound 0.005 µM), 0.406; in the test with AZD5582 + OSI-027 (first compound 0.01581 µM), 0.33; with AZD5582 + OSI-027 (first compound 0.05 µM), 0.311. The relative viability came to 0.455 with AZD5582 + Linsitinib (first compound 0.001581 µM); 0.592 with AZD5582 + Linsitinib (first compound 0.005 µM); 0.5 with AZD5582 + Linsitinib (first compound 0.01581 µM); 0.45 with AZD5582 + Linsitinib (first compound 0.05 µM); 1.42 with AZD5582 + Tozasertib (first compound 0.001581 µM); 0.515 with AZD5582 + Tozasertib (first compound 0.005 µM). Further, the values for the relative viability with AZD5582 + Tozasertib (first compound 0.01581 µM) and in the test with AZD5582 + Tozasertib (first compound 0.05 µM) were 0.428 and 0.529, respectively.

With HCC-366, the relative viability in the test with AZD5582 + Pictilisib (first compound 0.001581 µM) was determined as 0.0939; with AZD5582 + Pictilisib (first compound 0.005 µM), 0.203; with AZD5582 + Pictilisib (first compound 0.01581 µM) it was 0.102; in the test with AZD5582 + Pictilisib (first compound 0.05 µM), 0.205; with AZD5582 + Crizotinib (first compound 0.001581 µM), 0.476; with AZD5582 + Crizotinib (first compound 0.005 µM), 0.517. For the same cell line, the relative viability was found to be 0.56 with AZD5582 + Crizotinib (first compound 0.01581 µM); 0.635 with AZD5582 + Crizotinib (first compound 0.05 µM); 0.654 in the test with AZD5582 + OSI-027 (first compound 0.001581 µM); 0.995 with AZD5582 + OSI-027 (first compound 0.005 µM); 0.934 in the test with AZD5582 + OSI-027 (first compound 0.05 µM); 0.7 with AZD5582 + Linsitinib (first compound 0.001581 µM). The relative viability in the test with AZD5582 + Linsitinib (first compound 0.005 µM) worked out at 0.754; with AZD5582 + Linsitinib (first compound 0.01581 µM) it was 0.622; with AZD5582 + Linsitinib (first compound 0.05 µM), 0.822; with AZD5582 + Tozasertib (first compound 0.001581 µM), 0.0633; in the test with AZD5582 + Tozasertib (first compound 0.005 µM), 0.134; in the test with AZD5582 + Tozasertib (first compound 0.05 µM), 0.155.

For HCC-827, the relative viability with AZD5582 + Pictilisib (first compound 0.001581 µM) amounted to 0.995; with AZD5582 + Pictilisib (first compound 0.005 µM), 0.954; in the test with AZD5582 + Pictilisib (first compound 0.01581 µM), 0.979; with AZD5582 + Pictilisib (first compound 0.05 µM) it was 1.06; with AZD5582 + Crizotinib (first compound 0.001581 µM) it was 0.885; with AZD5582 + Crizotinib (first compound 0.005 µM), 1.02. The relative viability turned out to be 0.926 with AZD5582 + Crizotinib (first compound 0.01581 µM); 0.898 in the test with AZD5582 + Crizotinib (first compound 0.05 µM); 0.618 with AZD5582 + OSI-027 (first compound 0.001581 µM); 0.84 with AZD5582 + OSI-027 (first compound 0.005 µM); 0.761 with AZD5582 + OSI-027 (first compound 0.01581 µM); 0.855 with AZD5582 + OSI-027 (first compound 0.05 µM). Further, the relative viability with AZD5582 + Linsitinib (first compound 0.001581 µM) stood at 0.897; with AZD5582 + Linsitinib (first compound 0.005 µM) it was 0.968; with AZD5582 + Linsitinib (first compound 0.01581 µM), 0.885; with AZD5582 + Linsitinib (first compound 0.05 µM), 0.948; with AZD5582 + Tozasertib (first compound 0.001581 µM), 0.398; with AZD5582 + Tozasertib (first compound 0.005 µM), 0.489. Moreover, the relative viability was 0.436 in the test with AZD5582 + Tozasertib (first compound 0.01581 µM) and 0.396 in the test with AZD5582 + Tozasertib (first compound 0.05 µM).

As to IA-LM, the relative viability was found to be 0.355 with AZD5582 + Pictilisib (first compound 0.005 µM); 0.347 with AZD5582 + Pictilisib (first compound 0.01581 µM); 0.314 with AZD5582 + Pictilisib (first compound 0.05 µM); 0.546 with AZD5582 + Crizotinib (first compound 0.001581 µM); 0.63 with AZD5582 + Crizotinib (first compound 0.005 µM); 0.818 in the test with AZD5582 + Crizotinib (first compound 0.01581 µM). For the same cell line, the relative viability with AZD5582 + Crizotinib (first compound 0.05 µM) stood at 0.699; in the test with AZD5582 + Linsitinib (first compound 0.001581 µM), 0.5; with AZD5582 + Linsitinib (first compound 0.005 µM) it was 0.479; with AZD5582 + Linsitinib (first compound 0.01581 µM), 0.64; with AZD5582 + Linsitinib (first compound 0.05 µM), 0.599.

Turning to NCI-H522, the relative viability was 0.671 with AZD5582 + OSI-027 (first compound 0.001581 µM); 0.711 with AZD5582 + OSI-027 (first compound 0.005 µM); 0.861 with AZD5582 + OSI-027 (first compound 0.01581 µM); 0.595 with AZD5582 + OSI-027 (first compound 0.05 µM); 0.592 with AZD5582 + Tozasertib (first compound 0.001581 µM); 0.491 in the test with AZD5582 + Tozasertib (first compound 0.005 µM). The relative viability in the test with AZD5582 + Tozasertib (first compound 0.01581 µM) was determined as 0.594; with AZD5582 + Tozasertib (first compound 0.05 µM) it was 0.524.

The values above are taken from the supplement of paper PMC10307832.
